Data taken from ChEMBL document CHEMBL1134222, “The identification of a potent, water soluble inhibitor of lipoprotein-associated phospholipase A2” (Bioorg Med Chem Lett, 2001).

Legend:
[1] = Concentration required for inhibition of human serine dependent Phospholipase A2
[2] = species: Rattus norvegicus; assay: Compound was tested for its percent CNS penetration in rat; format: functional, Central nervous system
[3] = tested on: Rattus norvegicus; assay: Compound was tested for liver blood flow after intravenous administration in rat; format: functional
[4] = Rapid clearance after intravenous administration in rat was determined; format: ADME, organism-based; conditions: blood, read-out: CLb
[5] = tested on: Platelet-activating factor acetylhydrolase (Rattus norvegicus); assay: Compound was tested for inhibition of Lipoprotein associated phospholipase A2 in rat; conditions: concentration not given here
[6] = species: Homo sapiens; assay: Compound was tested for inhibition of plasma enzyme in whole human plasma at concentration 100 nM; format: functional

Row | Structure (SMILES) | IC50 [1] | further results
1 | CCCCCCCCN(C)C(=O)Cn1cc(Cc2cnc(=O)n(CC(=O)OCC)c2)c(=O)nc1SCc1ccc(F)cc1 | 75 nM | 
2 | CCCCCCCCN(C)C(=O)Cn1cc(Cc2cnc(OCC)nc2)c(=O)nc1SCc1ccc(F)cc1 | 3 nM | 
3 | CCCCCCCCCCCCN(C)C(=O)Cn1cc(Cc2cnc(=O)n(CC(=O)O)c2)c(=O)nc1SCc1ccc(F)cc1 | 1 nM | Activity [2]: 37%; Activity [3]: 85%; clearance [4]: 76 mL/min/kg; inhibition [5]: 83%
4 | CCCCCCCCN(C)C(=O)Cn1cc(Cc2cnc(=O)n(CC(=O)N3CCN(C(C)=O)CC3)c2)c(=O)nc1SCc1ccc(F)cc1 | 5 nM | 
5 | CCCCCCCCCCCCN(C)C(=O)Cn1cc(Cc2cnc(=O)n(CC(=O)N3CCOCC3)c2)c(=O)nc1SCc1ccc(F)cc1 | 0.7 nM | Activity [2]: <7%; inhibition at 0.1 µM [6]: 80%
6 | CCCCCCCCN(C)C(=O)Cn1cc(Cc2cnc(O)nc2)c(=O)nc1SCc1ccc(F)cc1 | 4 nM | Activity [2]: 7%
7 | CCCCCCCCCCCCN(C)C(=O)Cn1cc(Cc2cnc(=O)n(CC(=O)OCC)c2)c(=O)nc1SCc1ccc(F)cc1 | 4 nM | 
8 | CCCCCCCCN(C)C(=O)Cn1cc(Cc2cnc(=O)n(CC(=O)NCCO)c2)c(=O)nc1SCc1ccc(F)cc1 | 8 nM | 
9 | CCCCCCCCN(C)C(=O)Cn1cc(Cc2cnc(=O)n(CC(=O)NCCC)c2)c(=O)nc1SCc1ccc(F)cc1 | 11 nM | 
10 | CCCCCCCCCCCCN(C)C(=O)Cn1cc(Cc2cnc(=O)n(CC(=O)N3CCNC(=O)C3)c2)c(=O)nc1SCc1ccc(F)cc1 | 0.4 nM | 
11 | CCCCCCCCCCCCN(C)C(=O)Cn1cc(Cc2cnc(OC)nc2)c(=O)nc1SCc1ccc(F)cc1 | 1 nM | 
12 | CCCCCCCCNC(=O)Cn1cc(Cc2cncnc2)c(=O)nc1SCc1ccc(F)cc1 | 7 nM | 
13 | CCCCCCCCCCCCN(C)C(=O)Cn1cc(Cc2cnc(=O)n(CCO)c2)c(=O)nc1SCc1ccc(F)cc1 | 1 nM | 
14 | CCCCCCCCCCCCN(C)C(=O)Cn1cc(Cc2cnc(=O)n(CC(=O)NCCO)c2)c(=O)nc1SCc1ccc(F)cc1 | 0.6 nM | inhibition at 0.1 µM [6]: 79%
15 | CCCCCCCCCCCCN(C)C(=O)Cn1cc(Cc2cnc(=O)n(CC(=O)NC)c2)c(=O)nc1SCc1ccc(F)cc1 | 0.4 nM | inhibition at 0.1 µM [6]: 80%
16 | CCCCCCCCN(C)C(=O)Cn1cc(Cc2cnc(=O)n(CC(=O)N3CCN(C)CC3)c2)c(=O)nc1SCc1ccc(F)cc1 | 3 nM | 
17 | CCCCCCCCN(C)C(=O)Cn1cc(Cc2cnc(=O)n(CC(=O)N3CCNC(=O)C3)c2)c(=O)nc1SCc1ccc(F)cc1 | 2 nM | 
18 | CCCCCCCCN(C)C(=O)Cn1cc(Cc2cnc(OCc3ccccc3)nc2)c(=O)nc1SCc1ccc(F)cc1 | 7 nM | 
19 | CCCCCCCCCCCCN(C)C(=O)Cn1cc(Cc2cncnc2)c(=O)nc1SCc1ccc(F)cc1 |  | Activity [2]: <2%
20 | CCCCCCCCN(C)C(=O)Cn1cc(Cc2cnc(=O)n(CC)c2)c(=O)nc1SCc1ccc(F)cc1 | 20 nM | 
21 | CCCCCCCCN(C)C(=O)Cn1cc(Cc2cnc(=O)n(CC(=O)N3CCOCC3)c2)c(=O)nc1SCc1ccc(F)cc1 | 10 nM | 
22 | CCCCCCCCN(C)C(=O)Cn1cc(Cc2cnc(OC)nc2)c(=O)nc1SCc1ccc(F)cc1 | 4 nM | 
23 | CCCCCCCCN(C)C(=O)Cn1cc(Cc2cnc(=O)n(CC(=O)O)c2)c(=O)nc1SCc1ccc(F)cc1 | 14 nM | Activity [2]: 10%
24 | CCCCCCCCN(C)C(=O)Cn1cc(Cc2cncnc2)c(=O)nc1SCc1ccc(F)cc1 | 15 nM | 
25 | CCCCCCCCN(C)C(=O)Cn1cc(Cc2cnc(=O)n(CCO)c2)c(=O)nc1SCc1ccc(F)cc1 | 5 nM | 
26 | CCCCCCCCN(C)C(=O)Cn1cc(Cc2cnc(=O)n(C)c2)c(=O)nc1SCc1ccc(F)cc1 | 27 nM | 
27 | CCCCCCCCCCCCN(C)C(=O)Cn1cc(Cc2cnc(=O)n(C)c2)c(=O)nc1SCc1ccc(F)cc1 | 5 nM | 
28 | CCCCCCCCCCCCN(C)C(=O)Cn1cc(Cc2cnc(O)nc2)c(=O)nc1SCc1ccc(F)cc1 | 0.9 nM | 
29 | CCCCCCCCN(C)C(=O)Cn1cc(Cc2cnc(=O)n(CC(=O)NC)c2)c(=O)nc1SCc1ccc(F)cc1 | 6 nM | Activity [2]: <7%
